Source: patent US20100105651A1, “ANTAGONISTS OF SNS SODIUM CHANNELS” (priority 2005, published 2010)

Biological target: T1, human NaV1.8 (hNaV1.8) ion channel (Homo sapiens, UniProt Q9Y5Y9)
T1 construct: expressed in transfected cells
Assay: Inhibition of Human NaV1.8 stably expressed in SH-SY-5Y cells (membrane potential dye fluorescence assay)
Assay type: cell-based
Settings: SH-SY-5Y cells stably expressing hNaV1.8; FLIPR membrane potential dye; 10 μM pyrethroid, 250 nM TTX; test range 100 μM-0.05 μM; read-out: hNav1.8 IC50

T1 sequence (Q9Y5Y9 whole entry): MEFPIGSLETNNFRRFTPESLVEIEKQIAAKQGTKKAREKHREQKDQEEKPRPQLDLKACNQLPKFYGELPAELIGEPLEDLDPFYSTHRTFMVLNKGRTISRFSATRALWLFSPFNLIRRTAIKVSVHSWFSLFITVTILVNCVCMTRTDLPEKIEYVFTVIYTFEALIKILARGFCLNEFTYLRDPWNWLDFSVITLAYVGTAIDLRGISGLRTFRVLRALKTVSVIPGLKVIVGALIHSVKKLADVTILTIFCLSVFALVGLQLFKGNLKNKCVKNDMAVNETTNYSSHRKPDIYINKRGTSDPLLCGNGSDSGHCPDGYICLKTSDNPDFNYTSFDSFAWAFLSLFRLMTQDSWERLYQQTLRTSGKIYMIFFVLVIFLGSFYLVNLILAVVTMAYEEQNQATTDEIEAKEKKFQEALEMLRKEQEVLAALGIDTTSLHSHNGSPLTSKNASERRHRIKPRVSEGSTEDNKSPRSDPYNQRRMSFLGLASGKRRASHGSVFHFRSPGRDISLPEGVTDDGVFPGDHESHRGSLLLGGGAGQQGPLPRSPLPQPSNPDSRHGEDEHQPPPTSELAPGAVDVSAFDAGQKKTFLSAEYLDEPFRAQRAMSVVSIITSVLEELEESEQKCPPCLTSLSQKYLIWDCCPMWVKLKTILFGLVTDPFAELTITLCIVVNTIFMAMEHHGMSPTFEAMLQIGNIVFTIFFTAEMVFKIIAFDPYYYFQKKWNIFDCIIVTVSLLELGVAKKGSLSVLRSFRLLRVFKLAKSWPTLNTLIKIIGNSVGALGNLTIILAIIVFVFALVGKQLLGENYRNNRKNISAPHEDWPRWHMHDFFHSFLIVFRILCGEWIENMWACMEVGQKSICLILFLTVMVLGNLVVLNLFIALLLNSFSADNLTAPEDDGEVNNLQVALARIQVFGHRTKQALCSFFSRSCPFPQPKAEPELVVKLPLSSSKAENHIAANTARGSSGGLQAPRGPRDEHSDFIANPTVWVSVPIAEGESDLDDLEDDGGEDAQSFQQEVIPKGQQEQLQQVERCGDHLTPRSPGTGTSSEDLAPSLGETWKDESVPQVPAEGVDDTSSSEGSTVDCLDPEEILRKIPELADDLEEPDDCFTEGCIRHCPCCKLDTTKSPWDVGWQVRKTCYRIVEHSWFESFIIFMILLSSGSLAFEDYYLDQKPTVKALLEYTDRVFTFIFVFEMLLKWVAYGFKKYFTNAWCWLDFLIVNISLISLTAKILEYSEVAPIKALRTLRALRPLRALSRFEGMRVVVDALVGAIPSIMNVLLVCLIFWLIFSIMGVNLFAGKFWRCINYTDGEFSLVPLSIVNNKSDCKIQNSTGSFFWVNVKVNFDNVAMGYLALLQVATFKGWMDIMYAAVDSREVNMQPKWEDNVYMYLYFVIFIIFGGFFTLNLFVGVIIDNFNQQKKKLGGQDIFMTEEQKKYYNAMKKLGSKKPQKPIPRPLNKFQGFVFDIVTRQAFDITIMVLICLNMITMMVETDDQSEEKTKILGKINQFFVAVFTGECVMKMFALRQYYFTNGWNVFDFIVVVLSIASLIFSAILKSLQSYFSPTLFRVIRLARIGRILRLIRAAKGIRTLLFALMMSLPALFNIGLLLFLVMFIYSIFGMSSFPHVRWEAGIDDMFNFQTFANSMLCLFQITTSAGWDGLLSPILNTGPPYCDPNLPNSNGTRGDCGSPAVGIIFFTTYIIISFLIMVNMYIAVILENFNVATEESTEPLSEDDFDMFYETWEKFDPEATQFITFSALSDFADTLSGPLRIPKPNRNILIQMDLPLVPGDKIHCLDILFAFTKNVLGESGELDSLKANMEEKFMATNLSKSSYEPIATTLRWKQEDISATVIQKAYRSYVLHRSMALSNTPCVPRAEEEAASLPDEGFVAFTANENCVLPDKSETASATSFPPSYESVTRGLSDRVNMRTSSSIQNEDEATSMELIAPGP

| SMILES | IC50 |
| --- | --- |
| CC(c1ccc(F)cc1)N(C)C1CN(C(=O)Nc2cc(F)cc(C(F)(F)F)c2)C1 (stereo not drawn) [Example 82, 3-{[1-(4-Fluoro-phenyl)-ethyl]-methyl-amino}-azetidine-1-carboxylic acid (3-fluoro-5-trifluoromethyl-phenyl)-amide] | 5730 nM |
| CC(c1ccc(F)cc1)N(C)C1CN(C(=O)Nc2ccc(F)c(C(F)(F)F)c2)C1 (stereo not drawn) [Example 83, 3-{[1-(4-Fluoro-phenyl)-ethyl]-methyl-amino}-azetidine-1-carboxylic acid (4-fluoro-3-trifluoromethyl-phenyl)-amide] | 3930 nM |
| CC(c1ccc(F)cc1)N(C)C1CN(C(=O)Nc2cccc(C(F)(F)F)c2F)C1 (stereo not drawn) [Example 84, 3-{[1-(4-Fluoro-phenyl)-ethyl]-methyl-amino}-azetidine-1-carboxylic acid (2-fluoro-3-trifluoromethyl-phenyl)-amide] | 5800 nM |
| CCCCOc1cccc(NC(=O)N2CC(N(C)C(C)c3ccc(F)cc3)C2)c1 (stereo not drawn) [Example 85, 3-{[1-(4-Fluoro-phenyl)-ethyl]-methyl-amino}-azetidine-1-carboxylic acid (3-butoxy-phenyl)-amide] | 1460 nM |
| CCCCOc1ccc(NC(=O)N2CC(N(C)C(C)c3ccc(F)cc3)C2)cc1 (stereo not drawn) [Example 86, 3-{[1-(4-Fluoro-phenyl)-ethyl]-methyl-amino}-azetidine-1-carboxylic acid (4-butoxy-phenyl)-amide] | 3530 nM |
| CCCCOc1cccc(NC(=O)N2CC(N(C)C(C)c3ccccc3C)C2)c1 (stereo not drawn) [Example 87, 3-[Methyl-(1-o-tolyl-ethyl)-amino]-azetidine-1-carboxylic acid (3-butoxy-phenyl)-amide] | 1030 nM |
| CC(NC1CN(C(=O)Nc2ccc(Oc3ccccc3)cc2)C1)c1ccccc1C(F)(F)F (stereo not drawn) [Example 88, 3-[1-(2-Trifluoromethyl-phenyl)-ethylamino]-azetidine-1-carboxylic acid (4-phenoxy-phenyl)-amide] | 1180 nM |
| CCCCOc1ccc(NC(=O)N2CC(N(C)C(C)c3ccccc3C)C2)cc1 (stereo not drawn) [Example 89, 3-[Methyl-(1-o-tolyl-ethyl)-amino]-azetidine-1-carboxylic acid (4-butoxy-phenyl)-amide] | 580 nM |
| CC(c1ccc(Oc2ccccc2)cc1)N(C)C1CN(C(=O)Nc2ccc(C(F)(F)F)cc2)C1 (stereo not drawn) [Example 90, 3-{Methyl-[1-(4-phenoxy-phenyl)-ethyl]-amino}-azetidine-1-carboxylic acid (4-trifluoromethyl-phenyl)-amide] | 1430 nM |
| CC(c1ccc(F)cc1)N(C)C1CN(C(=O)Nc2ccc(Oc3ccccc3)cc2)C1 (stereo not drawn) [Example 91, 3-{[1-(4-Fluoro-phenyl)-ethyl]-methyl-amino}-azetidine-1-carboxylic acid (4-phenoxy-phenyl)-amide] | 690 nM |
| CC(c1ccc(F)cc1Cl)N(C(=O)C(F)(F)F)C1CN(C(=O)Nc2ccc(Oc3ccccc3)cc2)C1 (stereo not drawn) [Example 92, 3-[[1-(2-Chloro-4-fluoro-phenyl)-ethyl]-(2,2,2-trifluoro-acetyl)-amino]-azetidine-1-carboxylic acid (4-phenoxy-phenyl)-amide] | 15100 nM |
| CC(c1ccccc1C(F)(F)F)N(C)C1CN(C(=O)Nc2ccc(Oc3ccccc3)cc2)C1 (stereo not drawn) [Example 93, 3-{Methyl-[1-(2-trifluoromethyl-phenyl)-ethyl]-amino}-azetidine-1-carboxylic acid (4-phenoxy-phenyl)-amide] | 1800 nM |
| CC(NC1CN(C(=O)Nc2ccc(Oc3ccc(F)cc3)cc2)C1)c1ccccc1Cl (stereo not drawn) [Example 94, 3-[1-(2-Chloro-phenyl)-ethylamino]-azetidine-1-carboxylic acid [4-(4-fluoro-phenoxy)-phenyl]-amide] | 540 nM |
| CC(c1ccc(F)cc1)N(C)C1CN(C(=O)Nc2cccc(C(F)(F)F)c2)C1 (stereo not drawn) [Example 95, 3-{[1-(4-Fluoro-phenyl)-ethyl]-methyl-amino}-azetidine-1-carboxylic acid (3-trifluoromethyl-phenyl)-amide] | 4550 nM |
| Cc1ccccc1C(C)N(C)C1CN(C(=O)Nc2cccc(C(F)(F)F)c2)C1 (stereo not drawn) [Example 96, 3-[Methyl-(1-o-tolyl-ethyl)-amino]-azetidine-1-carboxylic acid (3-trifluoromethyl-phenyl)-amide] | 3020 nM |
| CC(c1ccccc1Cl)N(C)C1CN(C(=O)Nc2cccc(C(F)(F)F)c2)C1 (stereo not drawn) [Example 97, 3-{[1-(2-Chloro-phenyl)-ethyl]-methyl-amino}-azetidine-1-carboxylic acid (3-trifluoromethyl-phenyl)-amide] | 3640 nM |
| CC(c1ccc(F)cc1)N(C)C1CN(C(=O)Nc2ccc(OC(F)(F)F)cc2)C1 (stereo not drawn) [Example 98, 3-{[1-(4-Fluoro-phenyl)-ethyl]-methyl-amino}-azetidine-1-carboxylic acid (4-trifluoromethoxy-phenyl)-amide] | 3190 nM |
| CN(C1CN(C(=O)Nc2ccc(Oc3ccccc3)cc2)C1)C(C)(C)c1ccccc1 [Example 99, 3-[Methyl-(1-methyl-1-phenyl-ethyl)-amino]-azetidine-1-carboxylic acid (4-phenoxy-phenyl)-amide] | 630 nM |
| CC(c1ccc(F)cc1Cl)N(C)C1CN(C(=O)Nc2cccc(Oc3ccccc3)c2)C1 (stereo not drawn) [Example 100, 3-{[1-(2-Chloro-4-fluoro-phenyl)-ethyl]-methyl-amino}-azetidine-1-carboxylic acid (3-phenoxy-phenyl)-amide] | 1210 nM |
| Cc1ccc(C(C)NC2CN(C(=O)Nc3ccc(Oc4ccccc4)cc3)C2)c(C)c1 (stereo not drawn) [Example 101, 3-[1-(2,4-Dimethyl-phenyl)-ethylamino]-azetidine-1-carboxylic acid (4-phenoxy-phenyl)-amide] | 290 nM |
| CC(NC1CN(C(=O)Nc2cccc(Oc3ccccc3)c2)C1)c1ccccc1Cl (stereo not drawn) [Example 102, 3-[1-(2-Chloro-phenyl)-ethylamino]-azetidine-1-carboxylic acid (3-phenoxy-phenyl)-amide] | 800 nM |
| CC(NC1CN(C(=O)Nc2cccc(Oc3ccccc3)c2)C1)c1ccc(F)cc1 (stereo not drawn) [Example 103, 3-[1-(4-Fluoro-phenyl)-ethylamino]-azetidine-1-carboxylic acid (3-phenoxy-phenyl)-amide] | 730 nM |
| Cc1ccccc1C(C)NC1CN(C(=O)Nc2ccc(C(F)(F)F)cc2)C1 (stereo not drawn) [Example 104, 3-(1-o-Tolyl-ethylamino)-azetidine-1-carboxylic acid (4-trifluoromethyl-phenyl)-amide] | 2540 nM |
| Cc1ccc(C(C)N(C)C2CN(C(=O)Nc3ccc(Oc4ccccc4)cc3)C2)c(C)c1 (stereo not drawn) [Example 105, 3-{[1-(2,4-Dimethyl-phenyl)-ethyl]-methyl-amino}-azetidine-1-carboxylic acid (4-phenoxy-phenyl)-amide] | 420 nM |
| Cc1ccccc1C(C)NC1CN(C(=O)Nc2cccc(Oc3ccccc3)c2)C1 (stereo not drawn) [Example 106, 3-(1-o-Tolyl-ethylamino)-azetidine-1-carboxylic acid (3-phenoxy-phenyl)-amide] | 560 nM |
| Cc1ccccc1C(C)N(C)C1CN(C(=O)Nc2cccc(Oc3ccccc3)c2)C1 (stereo not drawn) [Example 107, 3-[Methyl-(1-o-tolyl-ethyl)-amino]-azetidine-1-carboxylic acid (3-phenoxy-phenyl)-amide] | 510 nM |
| Cc1ccccc1C(C)NC1CN(C(=O)Nc2ccc(Oc3ccc(F)cc3)cc2)C1 (stereo not drawn) [Example 108, 3-(1-o-Tolyl-ethylamino)-azetidine-1-carboxylic acid [4-(4-fluoro-phenoxy)-phenyl]-amide] | 270 nM |
